Entries after “also recorded” stand apart in the source; their conditions may differ. Where two headings read alike, the source gives them in different places. Where a SMILES comes first, the peptide text is derived from it. [ ]: non-standard residue; d: D form. pGlu = O=C1CC[C@@H](C(=O)O)N1
What was measured:
[1] = tested on: hemi-anterior pituitaries of adult male rats; experiment: FSH release in vitro from incubated hemi-anterior pituitaries (RIA of medium); format: cell-based, rat; settings: for FSH: n = 6
Protocol: (§1) After acclimatization for 5 or more days in the vivarium, male rats were killed by decapitation. Following removal of the posterior lobe, the anterior pituitary (AP) was bisected longitudinally, and each AP was incubated in a tube containing 0.5 ml Krebs-Ringer bicarbonate (5 mM ascorbic acid; pH 7.4) buffer (KRB) in an atmosphere of 95% O2 /5% CO2 in a Dubnoff shaker (50 cycles per min) for a period of 60 min. Following this pre-incubation period, the APs were incubated for 3 hr in fresh KRB buffer alone (control), or in KRB containing one of various concentrations of synthetic mammalian (m)-LHRH, l-LHRH-III, l-LHRH-I, chicken (c)-LHRH-II, or salmon (s)-LHRH. The medium was then aspirated, and was stored frozen at -20° C. until radio-immunoassays (RIA) for FSH and LH were conducted. FSH and LH were measured using kits supplied by the National Institute of Arthritis Digestive Diabetes and Kidney Disease; hormone values were expressed in terms of NIH-rFSH-RP-2 and NIH-rLH-RP-3 standards. The experiments were repeated twice. The inter- and intra-assay coefficients of variation for FSH assays were 7.5% and 5.2%, respectively; and were 6.5% and 4.8% for LH assays.

[2] = tested on: hemi-anterior pituitaries of adult male rats; experiment: LH release in vitro from incubated hemi-anterior pituitaries (RIA of medium); format: cell-based, rat; settings: for LH: n = 6
Protocol: as §1

[3] = tested on: ovariectomized, estrogen- and progesterone-blocked female rats; experiment: FSH release in vivo after intravenous injection; design: species or system rat; settings: for selectivity for FSH release in vivo, result in words: screen of known LHRH's and LHRH analogs, unpublished data; for Change in FSH from baseline, 10 minutes post-injection: saline control -3.85 ± 0.82
Protocol: (§2) Female rats were ovariectomized under anesthesia with isoflurane 4 weeks prior to the in vivo experiments. Three days before blood sampling, each ovariectomized rat was injected subcutaneously with 50 μg estradiol benzoate (Sigma Chemical Co., St. Louis, Mo.) dissolved in 0.1 ml sesame oil, and 25 mg progesterone (Eli Lilly, Indianapolis, Ind.) dissolved in 0.5 ml sesame oil. One day prior to testing, each animal was implanted with a jugular-atrial catheter. On the morning of testing, polyethylene tubing (PE-50) was connected to the distal end of the jugular-atrial catheter on the rat's dorsum to facilitate blood sampling and intravenous injection. Animals were acclimatized one hour before initial blood samples were taken. Heparinized blood samples ([…]) were collected just before, and at 10, 30, and 60 minutes after injection of 0.5 ml isotonic saline or l-LHRH-III (10 or 100 pmole) in 0.5 ml isotonic saline. After removal of each blood sample, an equal volume of isotonic saline was administered to maintain blood volume.

[4] = tested on: rats; settings: Yu et al., 1990; cited from earlier work
[5] = tested on: ovariectomized, estrogen- and progesterone-blocked female rats; experiment: LH release in vivo after intravenous injection; design: species or system rat; settings: for Change in LH from baseline, 10 minutes post-injection: saline control -0.070 ± 0.122
Protocol: as §2

[6] = tested on: Petromyzon marinus (lamprey) ovaries; settings: Sower et al., 1993; cited from earlier work
[7] = Table 4 experiment, 10^-6 M, KRB control 157.5 ± 13.2
[8] = Table 4 experiment, 10^-7 M, KRB control 157.5 ± 13.2
[9] = Table 5 experiment, 10^-6 M, KRB control 149.3 ± 17.0
[10] = Table 5 experiment, 10^-7 M, KRB control 149.3 ± 17.0
[11] = Table 4 experiment, 10^-8 M, KRB control 157.5 ± 13.2
[12] = Table 5 experiment, 10^-8 M, KRB control 149.3 ± 17.0
[13] = Table 2, 10^-5 M, 3 hr incubation, KRB control 97.7 ± 20.4
[14] = Table 2, 10^-6 M, 3 hr incubation, KRB control 97.7 ± 20.4
[15] = Table 3, 10^-5 M, 3 hr incubation, KRB control 139.3 ± 16.9
[16] = Table 3, 10^-6 M, 3 hr incubation, KRB control 139.3 ± 16.9

CC(C)C[C@H](NC(=O)CNC(=O)[C@H](Cc1ccc(O)cc1)NC(=O)[C@H](CO)NC(=O)[C@H](Cc1c[nH]c2ccccc12)NC(=O)[C@H](Cc1c[nH]cn1)NC(=O)[C@@H]1CCC(=O)N1)C(=O)N[C@@H](CCCNC(=N)N)C(=O)N1CCC[C@H]1C(=O)NCC(N)=O [m-LHRH, pGlu-His-Trp-Ser-Tyr-Gly-Leu-Arg-Pro-Gly-NH2]
FSH release in vitro, result in words [1]: approximately equipotent toward releasing FSH; also recorded: equivalent levels of FSH release at the two concentrations tested | FSH ([1]; Table 2, 2 × 10^-8 M, 3 hr incubation, KRB control 97.7 ± 20.4): 257.5 ± 42.4 ng/mL | FSH ([1]; Table 2, 4 × 10^-9 M, 3 hr incubation, KRB control 97.7 ± 20.4): 218.5 ± 35.7 ng/mL | FSH ([1]; Table 4 experiment, 2 × 10^-8 M, KRB control 157.5 ± 13.2): 320.5 ± 42.6 ng/mL | LH release in vitro, result in words [2]: dose-related stimulatory effect on LH release, and was active at the lowest concentration tested (4×10^-9 M) | LH ([2]; Table 3, 2 × 10^-8 M, 3 hr incubation, KRB control 139.3 ± 16.9): 262.0 ± 36.1 ng/mL | LH ([2]; Table 3, 4 × 10^-9 M, 3 hr incubation, KRB control 139.3 ± 16.9): 183.1 ± 27.0 ng/mL | LH ([2]; Table 5 experiment, 2 × 10^-8 M, KRB control 149.3 ± 17.0): 214.7 ± 30.3 ng/mL

CC(C)C[C@H](NC(=O)[C@H](Cc1c[nH]c2ccccc12)NC(=O)CNC(=O)[C@H](Cc1ccc(O)cc1)NC(=O)[C@H](CO)NC(=O)[C@H](Cc1c[nH]c2ccccc12)NC(=O)[C@H](Cc1c[nH]cn1)NC(=O)[C@@H]1CCC(=O)N1)C(=O)N1CCC[C@H]1C(=O)NCC(N)=O [s-LHRH, pGlu-His-Trp-Ser-Tyr-Gly-Trp-Leu-Pro-Gly-NH2] ([pGlu]HWSYGWLPG-NH2)
FSH [1, 7]: 203.2 ± 39.2 ng/mL | FSH [1, 8]: 233.0 ± 37.4 ng/mL | FSH release in vitro, result in words ([1]; listed as Salmon (s)-LHRH): stimulated the release of both FSH and LH | FSH release in vitro, result in words ([1]; listed as Salmon LHRH): low potency, and lacked specificity for FSH release | LH release in vitro, result in words [2]: stimulated the release of both FSH and LH | LH [2, 9]: 186.2 ± 13.6 ng/mL | LH [2, 10]: 230.8 ± 38.8 ng/mL

NC(=O)CNC(=O)[C@@H]1CCCN1C(=O)[C@H](Cc1ccc(O)cc1)NC(=O)[C@H](Cc1c[nH]c2ccccc12)NC(=O)CNC(=O)[C@H](Cc1c[nH]cn1)NC(=O)[C@H](CO)NC(=O)[C@H](Cc1c[nH]c2ccccc12)NC(=O)[C@H](Cc1c[nH]cn1)NC(=O)[C@@H]1CCC(=O)N1 [c-LHRH-II, pGlu-His-Trp-Ser-His-G1y-Trp-Tyr-Pro-Gly-NH2] ([pGlu]HWSHGWYPG-NH2)
FSH release in vitro, result in words [1]: only significantly increased FSH release at the highest concentration tested (10^-6 M) | FSH [1, 7]: 263.7 ± 17.8 ng/mL | FSH [1, 8]: 209.3 ± 44.0 ng/mL | FSH [1, 11]: 123.7 ± 18.0 ng/mL | FSH release in vitro, result in words ([1]; listed as chicken LHRH-II): low potency, and lacked specificity for FSH release | LH release in vitro, result in words [2]: equivalent LH-releasing activity to that of m-LHRH | LH [2, 9]: 239.0 ± 31.7 ng/mL | LH [2, 10]: 216.3 ± 17.7 ng/mL | LH [2, 12]: 199.3 ± 13.6 ng/mL | LH release in vitro, result in words ([2]; listed as Chicken (c) LHRH-II): stimulated LH release at doses from 10^-8 to 10^-6 M | selectivity for FSH release in vivo, result in words [3]: slight selectivity for FSH release | selectivity for FSH release in vivo, result in words ([3]; listed as chicken (c) LHRH-II): slightly preferential FSH-releasing activity in vivo

CC(C)C[C@H](NC(=O)[C@H](CO)NC(=O)[C@H](Cc1ccc(O)cc1)NC(=O)[C@H](Cc1c[nH]cn1)NC(=O)[C@@H]1CCC(=O)N1)C(=O)N[C@@H](CCC(=O)O)C(=O)N[C@@H](Cc1c[nH]c2ccccc12)C(=O)N[C@@H](CCCCN)C(=O)N1CCC[C@H]1C(=O)NCC(N)=O [l-LHRH-I, pGlu-His-Tyr-Ser-Leu-Glu-Trp-Lys-Pro-Gly-NH2] ([pGlu]HYSLEWKPG-NH2)
FSH release in vitro, result in words [1]: minimal potency to release either FSH or LH; also recorded: small but statistically significant release of FSH at a concentration of 10^-5 M | FSH [1, 13]: 178.2 ± 17.0 ng/mL | FSH [1, 14]: 164.0 ± 29.3 ng/mL | LH release in vitro, result in words [2]: minimal potency to release either FSH or LH; also recorded: inactive at the two concentrations tested | LH [2, 15]: 120.4 ± 8.1 ng/mL | LH [2, 16]: 134.1 ± 23.2 ng/mL | activity in releasing FSH or LH in rats [4]: relatively low activity in releasing either FSH or LH

NCCCC[C@H](NC(=O)[C@H](Cc1c[nH]c2ccccc12)NC(=O)[C@H](CC(=O)O)NC(=O)[C@H](Cc1c[nH]cn1)NC(=O)[C@H](CO)NC(=O)[C@H](Cc1c[nH]c2ccccc12)NC(=O)[C@H](Cc1c[nH]cn1)NC(=O)[C@@H]1CCC(=O)N1)C(=O)N1CCC[C@H]1C(=O)NCC(N)=O [l-LHRH-III, pGlu-His-Trp-Ser-His-Asp-Trp-Lys-Pro-Gly-NH2]
FSH release in vitro, result in words [1]: approximately equipotent toward releasing FSH; also recorded: caused FSH release in a dose-related fashion | FSH ([1]; Table 2, 10^-4 M, 3 hr incubation, KRB control 97.7 ± 20.4): 368.6 ± 40.9 ng/mL | FSH [1, 13]: 283.0 ± 60.8 ng/mL | FSH [1, 14]: 278.2 ± 40.9 ng/mL | FSH ([1]; Table 2, 10^-7 M, 3 hr incubation, KRB control 97.7 ± 20.4): 213.0 ± 17.9 ng/mL | FSH ([1]; Table 2, 10^-8 M, 3 hr incubation, KRB control 97.7 ± 20.4): 255.7 ± 42.4 ng/mL | FSH ([1]; Table 2, 10^-9 M, 3 hr incubation, KRB control 97.7 ± 20.4): 228.3 ± 52.5 ng/mL | MEC for statistically significant FSH release relative to c-LHRH-II ([1]; Table 4 experiment): two orders of magnitude lower | FSH [1, 7]: 215.0 ± 38.0 ng/mL | FSH [1, 8]: 203.2 ± 16.4 ng/mL | FSH [1, 11]: 249.3 ± 31.3 ng/mL | FSH ([1]; Table 4 experiment, 10^-9 M, KRB control 157.5 ± 13.2): 196.3 ± 21.2 ng/mL | minimal effective concentration (MEC) for FSH release ([1]; lowest concentration tested 10^-9 M): ≤ 10^-9 M | concentration of maximal effect on FSH release ([1]; release levelled off through 10^-4 M): about 10^-6 M | LH ([2]; Table 3, 10^-4 M, 3 hr incubation, KRB control 139.3 ± 16.9): 236.6 ± 19.3 ng/mL | LH [2, 15]: 202.9 ± 31.2 ng/mL | LH [2, 16]: 233.6 ± 33.8 ng/mL | LH ([2]; Table 3, 10^-7 M, 3 hr incubation, KRB control 139.3 ± 16.9): 179.9 ± 28.4 ng/mL | LH ([2]; Table 3, 10^-8 M, 3 hr incubation, KRB control 139.3 ± 16.9): 165.7 ± 26.6 ng/mL | LH ([2]; Table 3, 10^-9 M, 3 hr incubation, KRB control 139.3 ± 16.9): 171.8 ± 27.3 ng/mL | LH [2, 9]: 176.0 ± 9.3 ng/mL | LH [2, 10]: 182.7 ± 13.7 ng/mL | LH [2, 12]: 163.2 ± 6.5 ng/mL | LH ([2]; Table 5 experiment, 10^-9 M, KRB control 149.3 ± 17.0): 158.7 ± 10.2 ng/mL | release of FSH versus LH in vivo, result in words ([3]; 10 pmole and 100 pmole): caused the release of FSH in vivo, but not LH | plasma FSH after injection versus saline control, result in words ([3]; 10 pmole intravenous): highly significant increase in plasma FSH 10 minutes after injection, an effect that vanished by 30 minutes post-injection; also recorded: increase in FSH in vivo (P<0.01) within ten minutes | Change in FSH from baseline, 10 minutes post-injection ([3]; 10 pmole intravenous, n = 6): -0.75 ± 0.37 ng/mL | plasma FSH after injection versus saline control, result in words ([3]; 100 pmole intravenous): slightly greater effect at 10 minutes that was maintained 30 minutes after injection | Change in FSH from baseline, 10 minutes post-injection ([3]; 100 pmole intravenous, n = 7): -0.43 ± 0.61 ng/mL | Change in LH from baseline, 10 minutes post-injection ([5]; 10 pmole intravenous, n = 6): -0.022 ± 0.078 ng/mL | plasma LH after injection versus saline control, result in words ([5]; 10 pmole or 100 pmole intravenous, 10, 30, 60 minutes): no significant increase in LH | Change in LH from baseline, 10 minutes post-injection ([5]; 100 pmole intravenous, n = 7): 0.097 ± 0.077 ng/mL | estradiol and progesterone release from ovaries [6]: stimulated estradiol and progesterone release
